Our source for the T/C values is PubChem BioAssay AID248 (DTP/NCI, 2004).

Structures are written as SMILES. Values joined by “and” are separate entries in the source; they are usually repeats but may differ in a detail not shown here. Equal entries are not always repeated. Toxic doses and inconclusive results are not listed.

In the assay the test system is L1210 leukemia ip in BDF1 mice, survival T/C. As to the kind of experiment: NCI In Vivo Anticancer Drug Screen. Data for tumor model L1210 Leukemia (intraperitoneal) in B6D2F1 (BDF1) mice. The settings on record: endpoint: mean survival time, higher = longer survival. The method in brief: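 Transplanted-tumor mice were given test agent; controls received vehicle only. Survival readings from the two groups were divided (treated over control).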

Take `COc1cc(N(CCCl)CCCl)c(OC)cc1C=Nc1cccc(F)c1`: the T/C reads like this: (dose: 12.5 mg/kg/injection, schedule: Q01DX001 (ip), vehicle: Klucel (hydroxypropylcellulose) (HPC)) 96 % of control; (dose: 13.0 mg/kg/injection, schedule: Q01DX009 (ip), vehicle: carboxymethylcellulose (CMC)) 116 % of control; (dose: 20.0 mg/kg/injection, schedule: Q01DX001 (ip), vehicle: Klucel (hydroxypropylcellulose) (HPC)) 117 % of control; (dose: 20.0 mg/kg/injection, schedule: Q01DX009 (ip), vehicle: carboxymethylcellulose (CMC)) 120 % of control; (dose: 25.0 mg/kg/injection, schedule: Q01DX001 (ip), vehicle: Klucel (hydroxypropylcellulose) (HPC)) 101 % of control; (dose: 30.0 mg/kg/injection, schedule: Q01DX009 (ip), vehicle: carboxymethylcellulose (CMC)) 118 % of control. For the same compound, the T/C runs as follows: (dose: 50.0 mg/kg/injection, schedule: Q01DX001 (ip), vehicle: Klucel (hydroxypropylcellulose) (HPC)) 98 % of control; (dose: 75.0 mg/kg/injection, schedule: Q01DX001 (ip), vehicle: Klucel (hydroxypropylcellulose) (HPC)) 101 % of control and 118 % of control; (dose: 177.0 mg/kg/injection, schedule: Q01DX001 (ip), vehicle: carboxymethylcellulose (CMC)) 122 % of control; (dose: 200.0 mg/kg/injection, schedule: Q01DX001 (ip), vehicle: carboxymethylcellulose (CMC)) 102 % of control; (dose: 400.0 mg/kg/injection, schedule: Q01DX001 (ip), vehicle: carboxymethylcellulose (CMC)) 153 % of control; (dose: 600.0 mg/kg/injection, schedule: Q01DX001 (ip), vehicle: carboxymethylcellulose (CMC)) 124 % of control.
For the compound `c1cc2[nH]c1C1(CCCC1)c1ccc([nH]1)C1(CCCC1)c1ccc([nH]1)C1(CCCC1)c1ccc([nH]1)C21CCCC1`, the T/C (dose: 100.0 mg/kg/injection, schedule: Q01DX001 (ip), vehicle: saline) was 102 % of control; the T/C (dose: 200.0 mg/kg/injection, schedule: Q01DX001 (ip), vehicle: saline) is 103 % of control; the T/C (dose: 400.0 mg/kg/injection, schedule: Q01DX001 (ip), vehicle: saline) was 94 % of control.
As to `CCS(=O)(=O)CCN1C(=O)C2C3CCC(O3)C2C1=O` (stereo unspecified), the T/C is 98 % of control (dose: 100.0 mg/kg/injection, schedule: Q04DX002 (ip), vehicle: Klucel (hydroxypropylcellulose) (HPC)); 95 % of control (dose: 200.0 mg/kg/injection, schedule: Q04DX002 (ip), vehicle: Klucel (hydroxypropylcellulose) (HPC)); 117 % of control (dose: 400.0 mg/kg/injection, schedule: Q04DX002 (ip), vehicle: Klucel (hydroxypropylcellulose) (HPC)).
With `CCC(CC)C(N)=O`, the T/C runs as follows: (dose: 100.0 mg/kg/injection, schedule: Q01DX001 (ip), vehicle: Klucel (hydroxypropylcellulose) (HPC)) 100 % of control; (dose: 200.0 mg/kg/injection, schedule: Q01DX001 (ip), vehicle: Klucel (hydroxypropylcellulose) (HPC)) 102 % of control; (dose: 400.0 mg/kg/injection, schedule: Q01DX001 (ip), vehicle: Klucel (hydroxypropylcellulose) (HPC)) 107 % of control.
